Where two headings read alike, the source gives them in different places.
Tests used:
[1] = solid form
Method: The analyses were carried out on a Panalytical X'Pert Pro diffractometer with a reflection-mode Bragg-Brentano focusing geometry (θ-2θ) assembly. The product analysed is deposited as a thin layer on a silicon single crystal. A copper anticathode tube (45 kV/40 mA) supplies an incident radiation Cu Kα1 (λ=1.5406 Å). The beam is collimated using Sollers slits which improve the parallelism and variable slits which limit scattering. An X'Celerator detector completes the device. The diagram recording characteristics are the following: sweeping from 2 to 30 degrees 2θ, counting time from 100 to 500 seconds per step with a step of 0.017°.

[2] = behaviour of the crystalline form under relative humidity; assay type: physicochemical; details: relative humidity of greater than 5%

Row | SMILES | comparison of the PXRD analyses immediately after production and after maintaining at 40° C. for one month [1] | stability relative to the other forms described (listed as anhydrous form D) | change of form in the presence of relative humidity [2] | stability relative to the other forms described
1 | CO[C@H]1C(=O)[C@]2(C)[C@@H](OC)C[C@H]3OC[C@@]3(OC(C)=O)[C@H]2[C@H](OC(=O)c2ccccc2)[C@]2(O)C[C@H](OC(=O)[C@H](O)[C@@H](NC(=O)OC(C)(C)C)c3ccccc3)C(C)=C1C2(C)C [Form A, reference compound] | partial desolvation resulting in a mixture of the acetone solvate form A and of the anhydrous form B being obtained |  |  | 
2 | CO[C@H]1C(=O)[C@]2(C)[C@@H](OC)C[C@H]3OC[C@@]3(OC(C)=O)[C@H]2[C@H](OC(=O)c2ccccc2)[C@]2(O)C[C@H](OC(=O)[C@H](O)[C@@H](NC(=O)OC(C)(C)C)c3ccccc3)C(C)=C1C2(C)C [Form D] | no change detected | most stable anhydrous form |  | 
3 | CO[C@H]1C(=O)[C@]2(C)[C@@H](OC)C[C@H]3OC[C@@]3(OC(C)=O)[C@H]2[C@H](OC(=O)c2ccccc2)[C@]2(O)C[C@H](OC(=O)[C@H](O)[C@@H](NC(=O)OC(C)(C)C)c3ccccc3)C(C)=C1C2(C)C [anhydrous form C] |  |  | changes to a hydrated form | least stable
